The numbers were not newly measured in US3968207A, “Method of controlling fleas and ticks on cats and dogs” (priority 1975, dated 1976), which cites them from elsewhere.

For this data set, the system named is lice. As to conditions: single spray treatment; cited from earlier work.

Regarding `CCOP(=S)(OCC)Oc1nc(Cl)c(Cl)cc1Cl` [Dursban, O,O-diethyl O-(3,5,6-trichloro-2-pyridyl)phosphorothioate], the “control of lice on cattle” value was “effective control”.
